This note sets out measurements from PubChem BioAssay AID1549 (Sanford-Burnham Center for Chemical Genomics, 2009).

Activity calls are given as the source filed them. How the calls were made is not given here.

This assay deals with Influenza A virus M2 proton channel (A/TW/4845/1999 H1N1). In words: M2 proton channel binding, NMR based, influenza A virus H1N1 strain (AID 1549). To be noted: NMR binding screen, M2 protein.
By Kd is commonly meant a measure of binding affinity in units of concentration. Regarding `O=[N+]([O-])c1cccc(-c2c[n+](=O)c3c(n2[O-])CCC3)c1`, the Kd is > 4 mM (inactive).
To `CNC(=S)N1CCN=C1Nc1nc(C)cc(C)n1` belongs > 4 mM (inactive); to `O=C(NC(O)C(=O)c1ccccc1)c1ccco1` (stereo not drawn), > 4 mM (inactive).
In the case of `COC(=O)c1cccc(N)c1`, the Kd was > 4 mM (inactive).
Turning to `Cc1cc(=O)n2[nH]c(N)nc2n1`, the Kd was > 4 mM (inactive).
To `COC(=O)c1sccc1S(=O)(=O)N1CCCC1` belongs > 4 mM (inactive); to `CCS(=O)(=O)N1CCN(c2ccccc2F)CC1`, > 4 mM (inactive); to `c1ccc(-c2noc(-c3ccc4c(c3)OCO4)n2)nc1`, > 4 mM (inactive).
Turning to `N#Cc1c(N)c(C(=O)c2ccccc2)n2c1CCC2`, the Kd was > 4 mM (inactive).
In the case of `O=C(Nc1ccon1)c1csc2ccccc12`, the Kd is > 4 mM (inactive).
Take `Cc1cc(NC(=O)CCCn2cnc([N+](=O)[O-])n2)no1`: the Kd is > 4 mM (inactive).
The result for `C#CCCCCCCCCCCCc1ccco1` reads > 4 mM (inactive); that for `Cc1ccccc1NC(=O)CC1SC(N)=NC1=O` (stereo not drawn), > 4 mM (inactive); that for `CC1(C)Cc2nc(N3CCOCC3)c(C#N)cc2CO1`, > 4 mM (inactive).
As for `NC(=O)C1CCN(c2nccc(C(F)(F)F)n2)CC1`, the Kd is > 4 mM (inactive).
The result for `Cc1nc2ccccc2c(=O)n1/N=C/c1ccncc1` reads > 4 mM (inactive).
The result for `O=C(c1ccncc1)c1ccc(Br)cc1` reads > 4 mM (inactive); that for `O=C(c1cc2ccccc2o1)N1CCCCCC1`, > 4 mM (inactive); that for `N#C/C(=C\c1ccc[nH]1)S(=O)(=O)c1ccccc1`, > 4 mM (inactive).
To `O=c1cnnc(SCCc2ccccc2)[nH]1` belongs > 4 mM (inactive); to `CC(=O)Oc1ccc(-c2nc(-c3cccnc3)no2)cc1`, > 4 mM (inactive).
Turning to `CC1(C)C[C@@H]2C(=O)CC[C@H]3O[C@]3(C)CC[C@H]21`, the Kd was > 4 mM (inactive).
To `CC(C)(C)c1ccc(SCC(N)=O)cc1` belongs > 4 mM (inactive); to `COc1cc(OC)c2ccc(=O)oc2c1`, > 4 mM (inactive); to `CN1CCC(N2CCOCC2)CC1`, > 4 mM (inactive).
The result for `O=C1N=c2ccccc2=C1c1[nH]c(=S)[nH]c1O` reads > 4 mM (inactive); that for `O=C(Nc1ccccc1F)c1ccncc1`, > 4 mM (inactive).
The result for `COc1ccc(C(C)=O)c(O)c1` reads > 4 mM (inactive); that for `CC1(C)NCCN2C(=O)CSC21` (stereo not drawn), > 4 mM (inactive).
Regarding `Cc1ccc(C)n1-c1ccc(C(=O)N2CCOCC2)cc1`, the Kd was > 4 mM (inactive).
To `Nc1cccnc1Oc1ccc(F)cc1F` belongs > 4 mM (inactive); to `CC(=O)NC1=NN(c2ccccc2)C(=O)C1`, > 4 mM (inactive).
The result for `CN1C(=O)CC[C@H]1c1cccnc1` reads > 4 mM (inactive); that for `O=C1CSC2=NCCCN12`, > 4 mM (inactive); that for `CC1CCN(C(=O)c2ccc3c(c2)OCCO3)CC1`, > 4 mM (inactive).
To `O=C1OCCC1Sc1nc2ccccc2c(=O)[nH]1` (stereo not drawn) belongs > 4 mM (inactive).
Take `NC1CS(=O)(=O)CC1O` (stereo not drawn): the Kd is > 4 mM (inactive).
To `N#Cc1cnn(Cc2ccc(Cl)cc2)c1N` belongs > 4 mM (inactive); to `COc1ccccc1N1C(=N)SCC1=O`, > 4 mM (inactive); to `OC1CCN(C(=S)NC2CC2)CC1`, > 4 mM (inactive).
The result for `COc1ccc2cnn(-c3ccccc3)c(=O)c2c1OC` reads > 4 mM (inactive); that for `O=C(O)c1cn(-c2ccccc2)nc1-c1ccncc1`, > 4 mM (inactive).
As to `Fc1cc2nccnc2cc1N1CCSCC1`, the Kd is > 4 mM (inactive).
